Experimental data published in patent US11109593B2, “Isoxazolin-5-one derivative and herbicide containing same as active ingredient” (HOKKO CHEMICAL INDUSTRY CO., LTD., priority 2017, dated 2021).

How the values were obtained:
Format in all cases: in vivo
Echinochloa crus-galli [1] = assay: Test Example 1: herbicidal effect test by treatment of rice paddy soil (immediately after seeding)
In short: (§1)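 Values are herbicidal rates (%) derived from average plant dry weight in treated versus untreated pots 14 days after treatment, run in duplicate. Treatment was a water-diluted emulsion dropped into flooded paddy soil right after sowing, at 120 g active ingredient per 10 ares.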

Scirpus juncoides [2] = assay: as above
In short: as §1

[3] = test system: broad leaf weeds (Lindernia pyxidaria and Monochoria vaginalis); assay: as above
In short: as §1

Echinochloa crus-galli [4] = assay: Test Example 2: herbicidal effect test by treatment during growing period in paddy rice cultivation (seven days after seeding); conditions: for Herbicidal rate (%) Echinochloa crus-galli: 120 g/10a active ingredient, assessed 14 days after treatment, dry weight vs untreated area
In short: (§2)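 Seeds sown 0–1 cm deep in puddled, fertilised paddy soil with about 3 cm standing water in a glass greenhouse. Diluted emulsion dropped into the water seven days after seeding at 120 g active ingredient per 10 ares. Herbicidal rate (%) from mean dry weight vs untreated, duplicate, 14 days after treatment.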

Scirpus juncoides [5] = assay: as above; conditions: for Herbicidal rate (%) Scirpus juncoides: 120 g/10a active ingredient, assessed 14 days after treatment, dry weight vs untreated area
In short: as §2

[6] = test system: broad leaf weeds (Lindernia pyxidaria and Monochoria vaginalis); assay: as above; conditions: for Herbicidal rate (%) Lindernia pyxidaria / Herbicidal rate (%) Monochoria vaginalis: 120 g/10a active ingredient, assessed 14 days after treatment, dry weight vs untreated area
In short: as §2

[7] = 120 g/10a active ingredient, 14 days after treatment, dry weight vs untreated area
[8] = 120 g/10a, rated 14 days after treatment, paddy soil pots
[9] = 120 g/10a active ingredient, dry weight vs untreated area, 14 days after treatment
[10] = Lindernia pyxidaria, 120 g/10a active ingredient, dry weight vs untreated area, 14 days after treatment
[11] = Monochoria vaginalis, 120 g/10a active ingredient, dry weight vs untreated area, 14 days after treatment

With `Cc1c(Cc2ccccc2N(S(=O)(=O)C(F)(F)F)S(=O)(=O)C(F)(F)F)c(=O)on1CCOCc1ccccc1` [Compound 1-1059] the “Herbicidal rate (%) Echinochloa crus-galli” value (Echinochloa crus-galli [1]; [7]) was 100%, the “Herbicidal rate (%) Scirpus juncoides” value (Scirpus juncoides [2]; [7]) was 80% and the “Herbicidal rate (%) Lindernia pyxidaria” value ([3]; Lindernia pyxidaria, 120 g/10a active ingredient, 14 days after treatment, dry weight vs untreated area) was 80%. For the same compound, the “Herbicidal rate (%) Monochoria vaginalis” value ([3]; Monochoria vaginalis, 120 g/10a active ingredient, 14 days after treatment, dry weight vs untreated area) was 90%, the “herbicidal rate, Echinochloa crus-galli” value (Echinochloa crus-galli [4]; [8]) was 90% and the “herbicidal rate, Scirpus juncoides” value (Scirpus juncoides [5]; [8]) was 70%. For the same compound, the “herbicidal rate, Lindernia pyxidaria” value ([6]; Lindernia pyxidaria, 120 g/10a, rated 14 days after treatment, paddy soil pots) was 40% and the “herbicidal rate, Monochoria vaginalis” value ([6]; Monochoria vaginalis, 120 g/10a, rated 14 days after treatment, paddy soil pots) was 70%.
With `CCN(CC)C(=O)n1oc(=O)c(Cc2ccccc2N(C(=O)OCC(C)C)S(=O)(=O)C(F)(F)F)c1C` [Compound 1-679] the “Herbicidal rate (%) Echinochloa crus-galli” value (Echinochloa crus-galli [1]; [9]) was 60%, the “Herbicidal rate (%) Scirpus juncoides” value (Scirpus juncoides [2]; [9]) was 50% and the “Herbicidal rate (%) Lindernia pyxidaria” value [3, 10] was 50%. For the same compound, the “Herbicidal rate (%) Monochoria vaginalis” value [3, 11] was 50%, the “Herbicidal rate (%) Echinochloa crus-galli” value (Echinochloa crus-galli [4]) was 50% and the “Herbicidal rate (%) Scirpus juncoides” value (Scirpus juncoides [5]) was 40%. The “Herbicidal rate (%) Lindernia pyxidaria” value ([6]; Lindernia pyxidaria) was 40% and the “Herbicidal rate (%) Monochoria vaginalis” value ([6]; Monochoria vaginalis) was 40%.
For `Cc1c(Cc2ccccc2N(S(=O)(=O)C(F)(F)F)S(=O)(=O)C(F)(F)F)c(=O)on1C(C)c1ccccc1Cl` (stereo not drawn) [Compound 1-1032], the “Herbicidal rate (%) Echinochloa crus-galli” value (Echinochloa crus-galli [1]; [9]) was 80%, the “Herbicidal rate (%) Scirpus juncoides” value (Scirpus juncoides [2]; [9]) was 90% and the “Herbicidal rate (%) Lindernia pyxidaria” value [3, 10] was 90%. For the same compound, the “Herbicidal rate (%) Monochoria vaginalis” value [3, 11] was 90%, the “Herbicidal rate (%) Echinochloa crus-galli” value (Echinochloa crus-galli [4]) was 40% and the “Herbicidal rate (%) Scirpus juncoides” value (Scirpus juncoides [5]) was 40%. For the same compound, the “Herbicidal rate (%) Lindernia pyxidaria” value ([6]; Lindernia pyxidaria) was 40% and the “Herbicidal rate (%) Monochoria vaginalis” value ([6]; Monochoria vaginalis) was 40%.
For `C#CCn1oc(=O)c(Cc2ccccc2N(S(=O)(=O)C(F)(F)F)S(=O)(=O)C(F)(F)F)c1C` [Compound 1-988], the “Herbicidal rate (%) Echinochloa crus-galli” value (Echinochloa crus-galli [1]; [9]) was 90%, the “Herbicidal rate (%) Scirpus juncoides” value (Scirpus juncoides [2]; [9]) was 90% and the “Herbicidal rate (%) Lindernia pyxidaria” value [3, 10] was 100%. For the same compound, the “Herbicidal rate (%) Monochoria vaginalis” value [3, 11] was 100%, the “Herbicidal rate (%) Echinochloa crus-galli” value (Echinochloa crus-galli [4]) was 90% and the “Herbicidal rate (%) Scirpus juncoides” value (Scirpus juncoides [5]) was 90%. The “Herbicidal rate (%) Lindernia pyxidaria” value ([6]; Lindernia pyxidaria) was 100% and the “Herbicidal rate (%) Monochoria vaginalis” value ([6]; Monochoria vaginalis) was 100%.
`Cc1c(Cc2ccccc2N(S(=O)(=O)C(F)(F)F)S(=O)(=O)C(F)(F)F)c(=O)on1Cc1ccccc1F` [Compound 1-1012] was tested, and the “Herbicidal rate (%) Echinochloa crus-galli” value (Echinochloa crus-galli [1]; [9]) was 90%, the “Herbicidal rate (%) Scirpus juncoides” value (Scirpus juncoides [2]; [9]) was 100% and the “Herbicidal rate (%) Lindernia pyxidaria” value [3, 10] was 100%. For the same compound, the “Herbicidal rate (%) Monochoria vaginalis” value [3, 11] was 100%, the “Herbicidal rate (%) Echinochloa crus-galli” value (Echinochloa crus-galli [4]) was 60% and the “Herbicidal rate (%) Scirpus juncoides” value (Scirpus juncoides [5]) was 90%. The “Herbicidal rate (%) Lindernia pyxidaria” value ([6]; Lindernia pyxidaria) was 80% and the “Herbicidal rate (%) Monochoria vaginalis” value ([6]; Monochoria vaginalis) was 80%.
For `Cc1c(Cc2ccccc2NS(=O)(=O)C(F)(F)F)c(=O)on1Cc1cccc(F)c1` [Compound 1-182], the “Herbicidal rate (%) Echinochloa crus-galli” value (Echinochloa crus-galli [1]; [9]) was 90%, the “Herbicidal rate (%) Scirpus juncoides” value (Scirpus juncoides [2]; [9]) was 100% and the “Herbicidal rate (%) Lindernia pyxidaria” value [3, 10] was 100%. The “Herbicidal rate (%) Monochoria vaginalis” value [3, 11] was 90%, the “Herbicidal rate (%) Echinochloa crus-galli” value (Echinochloa crus-galli [4]) was 40% and the “Herbicidal rate (%) Scirpus juncoides” value (Scirpus juncoides [5]) was 70%. The “Herbicidal rate (%) Lindernia pyxidaria” value ([6]; Lindernia pyxidaria) was 60% and the “Herbicidal rate (%) Monochoria vaginalis” value ([6]; Monochoria vaginalis) was 60%.
`Cc1c(Cc2ccccc2NS(=O)(=O)C(F)(F)F)c(=O)on1Cc1ccc(C#N)cc1` [Compound 1-189] was tested, and the “Herbicidal rate (%) Echinochloa crus-galli” value (Echinochloa crus-galli [1]; [9]) was 90%, the “Herbicidal rate (%) Scirpus juncoides” value (Scirpus juncoides [2]; [9]) was 90% and the “Herbicidal rate (%) Lindernia pyxidaria” value [3, 10] was 100%. For the same compound, the “Herbicidal rate (%) Monochoria vaginalis” value [3, 11] was 90%, the “Herbicidal rate (%) Echinochloa crus-galli” value (Echinochloa crus-galli [4]) was 60% and the “Herbicidal rate (%) Scirpus juncoides” value (Scirpus juncoides [5]) was 80%. For the same compound, the “Herbicidal rate (%) Lindernia pyxidaria” value ([6]; Lindernia pyxidaria) was 80% and the “Herbicidal rate (%) Monochoria vaginalis” value ([6]; Monochoria vaginalis) was 80%.
In the case of `Cc1c(Cc2ccccc2N(S(=O)(=O)C(F)(F)F)S(=O)(=O)C(F)(F)F)c(=O)on1CC1CC1` [Compound 1-991], the “Herbicidal rate (%) Echinochloa crus-galli” value (Echinochloa crus-galli [1]; [9]) is reported as 90%, the “Herbicidal rate (%) Scirpus juncoides” value (Scirpus juncoides [2]; [9]) is reported as 90% and the “Herbicidal rate (%) Lindernia pyxidaria” value [3, 10] is reported as 100%. The “Herbicidal rate (%) Monochoria vaginalis” value [3, 11] was 100%, the “Herbicidal rate (%) Echinochloa crus-galli” value (Echinochloa crus-galli [4]) was 90% and the “Herbicidal rate (%) Scirpus juncoides” value (Scirpus juncoides [5]) was 90%. For the same compound, the “Herbicidal rate (%) Lindernia pyxidaria” value ([6]; Lindernia pyxidaria) was 70% and the “Herbicidal rate (%) Monochoria vaginalis” value ([6]; Monochoria vaginalis) was 80%.
With `Cc1c(Cc2cc(F)ccc2NS(=O)(=O)C(F)(F)F)c(=O)on1Cc1ccccc1` [Compound 1-31] the “Herbicidal rate (%) Echinochloa crus-galli” value (Echinochloa crus-galli [1]; [9]) was 90%, the “Herbicidal rate (%) Scirpus juncoides” value (Scirpus juncoides [2]; [9]) was 90% and the “Herbicidal rate (%) Lindernia pyxidaria” value [3, 10] was 90%. The “Herbicidal rate (%) Monochoria vaginalis” value [3, 11] was 80%, the “Herbicidal rate (%) Echinochloa crus-galli” value (Echinochloa crus-galli [4]) was 50% and the “Herbicidal rate (%) Scirpus juncoides” value (Scirpus juncoides [5]) was 70%. The “Herbicidal rate (%) Lindernia pyxidaria” value ([6]; Lindernia pyxidaria) was 60% and the “Herbicidal rate (%) Monochoria vaginalis” value ([6]; Monochoria vaginalis) was 80%.
